From patent publication US10882837B2, “Amide compounds and use thereof” (ALPHALA CO., LTD., priority 2017, dated 2021) come the findings set out here.

pIC50: −log10 of the molar value.

The target of one experiment is T1, glucagon receptor (GCGR) (Homo sapiens, UniProt P47871).
T1 construct: expressed in transfected cells; host or cells: CHO-K1
Nature of the experiment: Glucagon cAMP inhibition assay (Cisbio cAMP Dynamic 2 HTRF). It is filed as cell-based. The conditions noted are these: GCGR overexpressed CHO-K1 cells or human primary hepatocytes (not specified); glucagon at EC50. A digest of the protocol:
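GCGR-overexpressing CHO-K1 cells or human primary hepatocytes in HBSS with 0.1% BSA and 800 nM IBMX, pre-incubated 30 min with compound (1% DMSO final), then stimulated 30 min at room temperature with glucagon at its EC50. cAMP measured by HTRF after 60 min lysis; IC50 from non-linear regression.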
For orientation: TR-FRET usually uses a lanthanide donor and a delayed reading to cut background.

A further experiment deals with GCGR (Homo sapiens, UniProt P47871). Nature of the experiment: I125-glucagon binding assay (competition, GCGR membrane fractions). On the set-up: expressed in transfected cells; host or cells: CHO-K1. The settings on record: competition with I125-glucagon 0.0625 nM; membrane fractions from GCGR overexpressed CHO-K1 cells. A digest of the protocol:
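Membranes from CHO-K1 cells overexpressing GCGR (7.5 µg/well) were preincubated 5 min with serially diluted compound in 50 mM Tris pH 7.4, 0.5% BSA. I125-glucagon was then added at 0.0625 nM final and incubated 30 min at 25 °C. After filtration, bound radioactivity was counted and IC50 derived by non-linear regression.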

Sequence of GCGR (P47871 26-477, species assumed): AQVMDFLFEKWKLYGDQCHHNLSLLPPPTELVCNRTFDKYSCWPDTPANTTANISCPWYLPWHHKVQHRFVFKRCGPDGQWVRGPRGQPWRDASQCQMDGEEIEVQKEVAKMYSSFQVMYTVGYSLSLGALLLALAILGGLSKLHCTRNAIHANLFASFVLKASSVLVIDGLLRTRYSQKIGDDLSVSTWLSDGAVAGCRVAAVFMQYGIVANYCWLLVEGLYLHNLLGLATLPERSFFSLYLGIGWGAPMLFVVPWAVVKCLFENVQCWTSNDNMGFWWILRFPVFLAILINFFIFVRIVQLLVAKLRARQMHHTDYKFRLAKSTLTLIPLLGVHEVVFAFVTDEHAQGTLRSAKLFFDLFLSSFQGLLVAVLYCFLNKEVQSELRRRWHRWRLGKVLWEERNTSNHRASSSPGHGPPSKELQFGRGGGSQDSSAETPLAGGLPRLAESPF
T1 sequence (P47871 26-477, species assumed): as above

In general, pIC50 refers to −log10 of the IC50, conventionally taken in molar units. Consider `CCCC[C@@H](Nc1ccc(C(=O)NCCC(=O)OCC)cc1)c1ccc(-c2noc(C(F)(F)F)n2)cc1` [Compound 2-46, ethyl (R)-3-(4-((1-(4-(5-(trifluoromethyl)-1,2,4-oxadiazol-3-yl)phenyl)pentyl)amino)benzamido)propanoate], for which the pIC50 is 5.54 on glucagon receptor (GCGR) and under 4.52 on GCGR.

Consider `CCCC[C@H](Nc1ccc(C(=O)NCCC(=O)O)cc1)c1ccc(-c2noc(C(F)(F)F)n2)cc1` [Compound 2-47, (S)-3-(4-((1-(4-(5-(trifluoromethyl)-1,2,4-oxadiazol-3-yl)phenyl)pentyl)amino)benzamido)propanoic acid], for which the pIC50 against glucagon receptor (GCGR) is 6.37; on GCGR, 6.60.

As for `CCCC[C@@H](Nc1ccc(C(=O)NCCC(=O)O)cc1)c1ccc(-c2noc(C(F)(F)F)n2)cc1` [Compound 2-48, (R)-3-(4-((1-(4-(5-(trifluoromethyl)-1,2,4-oxadiazol-3-yl)phenyl)pentyl)amino)benzamido)propanoic acid], the pIC50 was 5.80 against glucagon receptor (GCGR) and 5.93 at GCGR.

Consider `COC(=O)CCNC(=O)c1ccc(N[C@H](c2ccc(-c3noc(-c4ccccc4)n3)cc2)C(C)C)cc1` [Compound 2-49, methyl (S)-3-(4-((2-methyl-1-(4-(5-phenyl-1,2,4-oxadiazol-3-yl)phenyl)propyl)amino)benzamido)propanoate], for which the pIC50 against glucagon receptor (GCGR) is 7.25; on GCGR, 6.55.

In the case of `CCCCC(Nc1ccc(-c2nnc(-c3ccccc3)o2)cc1)c1ccc(C(=O)NCCC(=O)O)cc1` (centres unmarked) [Compound 3-1, 3-(4-(1-((4-(5-phenyl-1,3,4-oxadiazol-2-yl)phenyl)amino)pentyl)benzamido)propanoic acid], the values for the pIC50 at glucagon receptor (GCGR) and at GCGR were 5.76 and 7.60, respectively.

`CC(C)C(Nc1ccc(-c2nnc(-c3ccccc3)o2)cc1)c1ccc(C(=O)NCCC(=O)O)cc1` (centres unmarked) [Compound 3-2, 3-(4-(2-methyl-1-((4-(5-phenyl-1,3,4-oxadiazol-2-yl)phenyl)amino)propyl)benzamido)propanoic acid]: the pIC50 on glucagon receptor (GCGR) was 5.54; at GCGR, 7.77.

Turning to `CCCCC(Nc1ccc(-c2nnc(-c3ccccc3)o2)cc1)c1ccc(C(=O)NCCC(=O)OCC)cc1` (centres unmarked) [Compound 3-3, ethyl 3-(4-(1-((4-(5-phenyl-1,3,4-oxadiazol-2-yl)phenyl)amino)pentyl)benzamido)propanoate], the results for the pIC50 against glucagon receptor (GCGR) and on GCGR were 6.03 and 5.88, respectively.

Take `CCOC(=O)CCNC(=O)c1ccc(C(Nc2ccc(-c3nnc(-c4ccccc4)o3)cc2)C(C)C)cc1` (centres unmarked) [Compound 3-4]: the values for the pIC50 against glucagon receptor (GCGR) and on GCGR were 5.91 and 5.55, respectively.

On to `CCOC(=O)CCNC(=O)c1ccc(C(Nc2ccc(-c3nnc(-c4ccccc4)o3)cc2)C(C)CC)cc1` (centres unmarked) [Compound 3-5, ethyl 3-(4-(2-methyl-1-((4-(5-phenyl-1,3,4-oxadiazol-2-yl)phenyl)amino)butyl)benzamido)propanoate], for which the pIC50 against glucagon receptor (GCGR) was 6.51; on GCGR, 6.02.

In the case of `CCC(C)C(Nc1ccc(-c2nnc(-c3ccccc3)o2)cc1)c1ccc(C(=O)NCCC(=O)O)cc1` (centres unmarked) [Compound 3-6, 3-(4-(2-methyl-1-((4-(5-phenyl-1,3,4-oxadiazol-2-yl)phenyl)amino)butyl)benzamido)propanoic acid], the pIC50 against glucagon receptor (GCGR) is 6.19; on GCGR, 7.24.

Regarding `CCOC(=O)CCNC(=O)c1ccc(C(Nc2ccc(-c3nnc(-c4ccc(F)cc4)o3)cc2)C(C)CC)cc1` (centres unmarked) [Compound 3-7, ethyl 3-(4-(1-((4-(5-(4-fluorophenyl)-1,3,4-oxadiazol-2-yl)phenyl)amino)-2-methylbutyl)benzamido)propanoate], the pIC50 was 6.80 on glucagon receptor (GCGR) and 6.61 on GCGR.

Turning to `CCC(C)C(Nc1ccc(-c2nnc(-c3ccc(F)cc3)o2)cc1)c1ccc(C(=O)NCCC(=O)O)cc1` (centres unmarked) [Compound 3-8, 3-(4-(1-((4-(5-(4-fluorophenyl)-1,3,4-oxadiazol-2-yl)phenyl)amino)-2-methylbutyl)benzamido)propanoic acid], the values for the pIC50 on glucagon receptor (GCGR) and at GCGR were 5.99 and 7.13, respectively.

For `CCOC(=O)CCNC(=O)c1ccc(C(Nc2ccc(-c3nnc(-c4ccc(F)cc4)o3)cc2)C(C)C)cc1` (centres unmarked) [Compound 3-9, ethyl 3-(4-(1-((4-(5-(4-fluorophenyl)-1,3,4-oxadiazol-2-yl)phenyl)amino)-2-methylpropyl)benzamido)propanoate], the pIC50 against glucagon receptor (GCGR) is 6.35; on GCGR it was under 4.52.

For the compound `CC(C)C(Nc1ccc(-c2nnc(-c3ccc(F)cc3)o2)cc1)c1ccc(C(=O)NCCC(=O)O)cc1` (centres unmarked) [Compound 3-10, 3-(4-(1-((4-(5-(4-fluorophenyl)-1,3,4-oxadiazol-2-yl)phenyl)amino)-2-methylpropyl)benzamido)propanoic acid], the pIC50 at glucagon receptor (GCGR) was 5.35; on GCGR, 6.84.

For `CC(C)C(Nc1ccc(-c2noc(-c3ccccc3)n2)cc1)c1ccc(C(=O)NCCC(=O)O)cc1` (centres unmarked) [Compound 3-11, 3-(4-(2-methyl-1-((4-(5-phenyl-1,2,4-oxadiazol-3-yl)phenyl)amino)propyl)benzamido)propanoic acid], the results for the negative logarithm of the IC50 (pIC50) on glucagon receptor (GCGR) and on GCGR were 6.14 and 6.50, respectively.

Turning to `CCOC(=O)CCNC(=O)c1ccc([C@@H](Nc2ccc(-c3nnc(-c4ccccc4)o3)cc2)C(C)C)cc1` [Compound 3-12, (S)-ethyl 3-(4-(2-methyl-1-(4-(5-phenyl-1,3,4-oxadiazol-2-yl)phenylamino)propyl)benzamido)propanoate], the pIC50 is 6.56 against glucagon receptor (GCGR) and under 4.52 at GCGR.

As for `CCOC(=O)CCNC(=O)c1ccc([C@H](Nc2ccc(-c3nnc(-c4ccccc4)o3)cc2)C(C)C)cc1` [Compound 3-13, (R)-ethyl 3-(4-(2-methyl-1-(4-(5-phenyl-1,3,4-oxadiazol-2-yl)phenylamino)propyl)benzamido)propanoate], the negative-log IC50 (pIC50) at glucagon receptor (GCGR) was 6.68; on GCGR it was under 4.52.

As for `CC(C)[C@H](Nc1ccc(-c2nnc(-c3ccccc3)o2)cc1)c1ccc(C(=O)NCCC(=O)O)cc1` [Compound 3-14, (S)-3-(4-(2-methyl-1-(4-(5-phenyl-1,3,4-oxadiazol-2-yl)phenylamino)propyl)benzamido)propanoic acid], the results for the pIC50 on glucagon receptor (GCGR) and at GCGR were 5.75 and 6.02, respectively.

`CC(C)[C@@H](Nc1ccc(-c2nnc(-c3ccccc3)o2)cc1)c1ccc(C(=O)NCCC(=O)O)cc1` [Compound 3-15, (R)-3-(4-(2-methyl-1-(4-(5-phenyl-1,3,4-oxadiazol-2-yl)phenylamino)propyl)benzamido)propanoic acid]: the pIC50 is 6.20 against glucagon receptor (GCGR) and 7.68 at GCGR.

As to `CCOC(=O)CCNC(=O)c1ccc(NC(c2ccc(-c3nc4ccccc4o3)cc2)C(C)C)cc1` (centres unmarked) [Compound 4-1, ethyl 3-(4-((1-(4-(benzo[d]oxazol-2-yl)phenyl)-2-methylpropyl)amino)benzamido)propanoate], the negative-log IC50 (pIC50) is 7.02 against glucagon receptor (GCGR) and 6.01 at GCGR.

On to `CCCCC(Nc1ccc(C(=O)NCCC(=O)OCC)cc1)c1ccc(-c2nc3ccccc3o2)cc1` (centres unmarked) [Compound 4-2, ethyl 3-(4-((1-(4-(benzo[d]oxazol-2-yl)phenyl)pentyl)amino)benzamido)propanoate], for which the negative logarithm of the IC50 (pIC50) against glucagon receptor (GCGR) was 6.93; at GCGR, 6.10.

Turning to `CC(C)C(Nc1ccc(C(=O)NCCC(=O)O)cc1)c1ccc(-c2nc3ccccc3o2)cc1` (centres unmarked) [Compound 4-3, 3-(4-((1-(4-(benzo[d]oxazol-2-yl)phenyl)-2-methylpropyl)amino)benzamido)propanoic acid], the figures for the pIC50 against glucagon receptor (GCGR) and at GCGR were 5.65 and 7.47, respectively.

On to `CCCCC(Nc1ccc(C(=O)NCCC(=O)O)cc1)c1ccc(-c2nc3ccccc3o2)cc1` (centres unmarked) [Compound 4-4, 3-(4-((1-(4-(benzo[d]oxazol-2-yl)phenyl)pentyl)amino)benzamido)propanoic acid], for which the pIC50 against glucagon receptor (GCGR) was 5.96; on GCGR it was 7.00.

Turning to `CCOC(=O)CCNC(=O)c1ccc(N[C@H](c2ccc(-c3nc4ccccc4o3)cc2)C(C)C)cc1` [Compound 4-5, ethyl (S)-3-(4-((1-(4-(benzo[d]oxazol-2-yl)phenyl)-2-methylpropyl)amino)benzamido)propanoate], the pIC50 was 7.58 on glucagon receptor (GCGR) and 6.15 on GCGR.

For `CCOC(=O)CCNC(=O)c1ccc(N[C@@H](c2ccc(-c3nc4ccccc4o3)cc2)C(C)C)cc1` [Compound 4-6, ethyl (R)-3-(4-((1-(4-(benzo[d]oxazol-2-yl)phenyl)-2-methylpropyl)amino)benzamido)propanoate], the pIC50 is 6.91 against glucagon receptor (GCGR) and under 5.52 on GCGR.

As for `CC(C)[C@H](Nc1ccc(C(=O)NCCC(=O)O)cc1)c1ccc(-c2nc3ccccc3o2)cc1` [Compound 4-7, (S)-3-(4-((1-(4-(benzo[d]oxazol-2-yl)phenyl)-2-methylpropyl)amino)benzamido)propanoic acid], the pIC50 at glucagon receptor (GCGR) is 6.19; at GCGR, 7.70.

Consider `CC(C)[C@@H](Nc1ccc(C(=O)NCCC(=O)O)cc1)c1ccc(-c2nc3ccccc3o2)cc1` [Compound 4-8, (R)-3-(4-((1-(4-(benzo[d]oxazol-2-yl)phenyl)-2-methylpropyl)amino)benzamido)propanoic acid], for which the negative logarithm of the IC50 (pIC50) on glucagon receptor (GCGR) was 5.97; on GCGR, 6.43.

As to `CCCC[C@@H](Nc1ccc(C(=O)NCCC(=O)OCC)cc1)c1ccc(-c2nc3ccccc3o2)cc1` [Compound 4-9, ethyl (R)-3-(4-((1-(4-(benzo[d]oxazol-2-yl)phenyl)pentyl)amino)benzamido)propanoate], the pIC50 against glucagon receptor (GCGR) is 6.73; at GCGR, 6.22.
